Source: PubChem BioAssay AID1963851 (Molecular Pharmacology Branch, DTP, NCI, 2024)
Where “and” joins values, the source holds several entries; their conditions need not be identical. Identical values can stand only once.

Tested on: 188146-221-R-J1-PDC complex spheroid viability
Assay: Anticancer human tumor 188146-221-R-J1-PDC patient-derived colon adenocarcinoma cell line growth inhibition [POLQ]
Conditions: for viability, T/C: stronger effect = lower value
Method: Multicellular complex tumor spheroid response to Polymerase (POL) inhibitors (novobiocin, ART-558, RP6685) in combination with a variety of drugs and investigational agents in selected tumor cell lines
The POL inhibitors (novobiocin, ART-558, and RP6685) were evaluated both individually and in combination with standard of care and investigational anticancer small molecules within a complex spheroid model of solid tumors. . Complex spheroids include a stromal component modeled by human endothelial cells (HUVEC) and fibroblasts modeled by human mesenchymal stem cells (MSCs). The concentration ranges selected for each drug and investigational agent were based upon clinically achievable concentrations if the clinical Cmax of the agent was known.
Compounds. The drugs and investigational agents: novobiocin (NSC847541), ART-558 (NSC835418), RP-6685 (NSC848927), peposertib (NSC802822), ceralasertib (NSC780249), elimusertib (NSC800525), camonsertib (NSC841442), AZD-1390 (NSC803789), olaparib (NSC753686), talazoparib (NSC767125), rucaparib (NSC756644), sotorasib (NSC818433), MRTX-1133 (NSC836407), SN-38 (NSC673596), topotecan (NSC609699), epotoside (NSC141540), doxorubicin (NSC123127), gemcitabine (NSC613327), 5-fluorouracil (NSC19893), paclitaxel (NSC125973), vemurafenib (NSC761431), MSA-2 (NSC828583), SN-011 (NSC837082), adavosertib (NSC754352), prexasertib (NSC758257), carboplatin (NSC241240) and oxaliplatin (NSC266046), were obtained from the National Cancer Institute (NCI) Developmental Therapeutics Program Chemical Repository (21). The FDA-approved anticancer drug set is available from the Developmental Therapeutics Program at https://dtp.cancer.gov/organization/dscb/obtaining/. […] The stock solutions were prepared in dimethyl sulfoxide (DMSO, Sigma-Aldrich, St. Louis, MO, cat. D2650), except for the platinum compounds which were prepared in saline (Quality Biological, Gaithersburg, MD, cat. 114-055-101), at 800-fold the tested concentration and stored at -70 degrees C prior to their use. All drugs and investigational agents were tested over a range starting from a high concentration at or near the clinical Cmax and decreasing in half-log increments. If the clinical Cmax for an agent had not been determined, the highest concentration tested was 10 microM, except for SN-38, which was tested at a high concentration of 1 microM.
Cell Culture. All cells were maintained in an incubator at 37 degrees C and 5% CO2 with 95% humidity. The PDC lines were cultured according to standard operating procedures established by the NCI PDMR (https://pdmr.cancer.gov). Table 3 of the manuscript, lists the cell lines along with the number of the three cell types plated to form the mct-spheroids and media for tumor cell growth. After thawing, all PDC lines, except 997537-175-T-J1-PDC and 415267-285-R-J2-PDC, were cultured in Matrigel-coated flasks prepared with a working solution of 1X Ham's F-12 nutrient mix, without supplementation (Thermo Fisher Scientific, cat. 11765054), 100 U/mL penicillin-streptomycin (Thermo Fisher Scientific, cat. 15140122), and 2.5% Matrigel (Corning Inc., Corning, NY, cat. 354248) for the first three passages. The two PDC lines 997537-175-T-J1-PDC and 415267-285-R-J2-PDC were cultured on uncoated flasks. The 857933-349-R-J2-PDC line was cultured in 6C/Colon 1B media containing advanced DMEM/F-12 (Thermo Fisher Scientific, cat. 12634028), 10 mM HEPES (Thermo Fisher Scientific, cat. 15630080), 1X GlutaMAX supplement (Thermo Fisher Scientific, cat. 35050061), 0.1 mg/mL primocin (InvivoGen, San Diego, CA, cat. ant-pm-2), 10% defined fetal bovine serum, heat inactivated (HyClone Laboratories Inc., Logan, UT, cat. SH30070.03HI), 50% L-WRN conditioned media (ATCC, cat. CRL-3276), 1.25 mM N-Acetyl-L-cysteine (Sigma-Aldrich, cat. A9165), 10 mM nicotinamide (Sigma-Aldrich, cat. N0636), 1X B-27 supplement (Thermo Fisher Scientific, cat. 17504044), 1X N-2 supplement (Thermo Fisher Scientific, cat. […]

[1] = curve of first compound, second compound 0.0316 µM
[2] = curve of first compound, second compound 0.1 µM
[3] = curve of first compound, second compound 0.316 µM
[4] = curve of first compound, second compound 1 µM
[5] = curve of first compound, second compound 3.16 µM
[6] = curve of first compound, second compound 10 µM
[7] = second compound 0.0316 µM, first compound 0.0316 µM
[8] = second compound 0.0316 µM, first compound 0.1 µM
[9] = second compound 0.0316 µM, first compound 0.316 µM
[10] = second compound 0.0316 µM, first compound 1 µM
[11] = second compound 0.0316 µM, first compound 3.16 µM
[12] = second compound 0.0316 µM, first compound 10 µM
[13] = second compound 0.1 µM, first compound 0.0316 µM
[14] = second compound 0.1 µM, first compound 0.1 µM
[15] = second compound 0.1 µM, first compound 0.316 µM
[16] = second compound 0.1 µM, first compound 1 µM
[17] = second compound 0.1 µM, first compound 3.16 µM
[18] = second compound 0.1 µM, first compound 10 µM
[19] = second compound 0.316 µM, first compound 0.0316 µM
[20] = second compound 0.316 µM, first compound 0.1 µM
[21] = second compound 0.316 µM, first compound 0.316 µM
[22] = second compound 0.316 µM, first compound 1 µM
[23] = second compound 0.316 µM, first compound 3.16 µM
[24] = second compound 0.316 µM, first compound 10 µM
[25] = second compound 1 µM, first compound 0.0316 µM
[26] = second compound 1 µM, first compound 0.1 µM
[27] = second compound 1 µM, first compound 0.316 µM
[28] = second compound 1 µM, first compound 1 µM
[29] = second compound 1 µM, first compound 3.16 µM
[30] = second compound 1 µM, first compound 10 µM
[31] = second compound 3.16 µM, first compound 0.0316 µM
[32] = second compound 3.16 µM, first compound 0.1 µM
[33] = second compound 3.16 µM, first compound 0.316 µM
[34] = second compound 3.16 µM, first compound 1 µM
[35] = second compound 3.16 µM, first compound 3.16 µM
[36] = second compound 3.16 µM, first compound 10 µM
[37] = second compound 10 µM, first compound 0.0316 µM
[38] = second compound 10 µM, first compound 0.1 µM
[39] = second compound 10 µM, first compound 0.316 µM
[40] = second compound 10 µM, first compound 1 µM
[41] = second compound 10 µM, first compound 3.16 µM
[42] = second compound 10 µM, first compound 10 µM
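Also: spheroids exposed to compounds for seven days.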
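For viability, T/C in this document: 100% = DMSO vehicle control viability.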

SMILES: CC(=O)O[C@H]1C(=O)[C@@]2(C)[C@H]([C@H](OC(=O)c3ccccc3)[C@]3(O)C[C@H](OC(=O)[C@H](O)[C@@H](NC(=O)c4ccccc4)c4ccccc4)C(C)=C1C3(C)C)[C@]1(OC(C)=O)CO[C@@H]1C[C@@H]2O
- viability, T/C (compound 0.00949 µM): 58.2% and 63% and 74.9%
- viability, T/C (compound 0.03 µM): 20.7% and 18.6% and 27.6%
- viability, T/C (compound 0.0949 µM): 13.3% and 12.8% and 9.47%
- viability, T/C (compound 0.3 µM): 11.7% and 11.9% and 11.2%
- viability, T/C (compound 0.949 µM): 15.4% and 12.2% and 9.82%
- viability, T/C (compound 3 µM): 13.5% and 12.8% and 9.87%
- IC50 (curve of compound): 12.2 nM and 13.3 nM and 17.4 nM

SMILES: Nc1ccn(C2OC(CO)C(O)C2(F)F)c(=O)n1 (stereo not drawn) + COC1C(OC(N)=O)C(O)C(Oc2ccc3c(O)c(NC(=O)c4ccc(O)c(CC=C(C)C)c4)c(=O)oc3c2C)OC1(C)C
- IC50 [1]: < 31.6 nM
- IC50 [2]: 32.1 nM
- IC50 [3]: < 31.6 nM
- IC50 [4]: < 31.6 nM
- IC50 [5]: < 31.6 nM
- IC50 [6]: < 31.6 nM
- viability, T/C [7]: 46.8%
- viability, T/C [8]: 29.5%
- viability, T/C [9]: 17.4%
- viability, T/C [10]: 14.4%
- viability, T/C [11]: 15.2%
- viability, T/C [12]: 13.2%
- viability, T/C [13]: 50.4%
- viability, T/C [14]: 29.4%
- viability, T/C [15]: 13.8%
- viability, T/C [16]: 12.5%
- viability, T/C [17]: 14.8%
- viability, T/C [18]: 14.3%
- viability, T/C [19]: 41.1%
- viability, T/C [20]: 28.7%
- viability, T/C [21]: 21.8%
- viability, T/C [22]: 12.2%
- viability, T/C [23]: 12%
- viability, T/C [24]: 11%
- viability, T/C [25]: 41.5%
- viability, T/C [26]: 24.8%
- viability, T/C [27]: 19.2%
- viability, T/C [28]: 13.4%
- viability, T/C [29]: 13.5%
- viability, T/C [30]: 12.6%
- viability, T/C [31]: 46.3%
- viability, T/C [32]: 26.1%
- viability, T/C [33]: 16.2%
- viability, T/C [34]: 13.5%
- viability, T/C [35]: 14%
- viability, T/C [36]: 13.9%
- viability, T/C [37]: 45.6%
- viability, T/C [38]: 20.5%
- viability, T/C [39]: 16.1%
- viability, T/C [40]: 12.4%
- viability, T/C [41]: 16.4%
- viability, T/C [42]: 13.3%

SMILES: CCc1cc2c(N3CCc4c(cc(Cn5ccnc5)cc4-c4cn(C)nc4C(F)(F)F)C3=O)ccnc2c(OC)n1 + Nc1ccc(C#CCN(C(=O)Cc2ncc(C(F)(F)F)cc2C(F)(F)F)c2ccc(F)cc2)nn1
- IC50 [1]: > 10000 nM
- IC50 [2]: 9810 nM
- IC50 [3]: > 10000 nM
- IC50 [4]: 9790 nM
- IC50 [5]: > 10000 nM
- IC50 [6]: > 10000 nM
- viability, T/C [7]: 105%
- viability, T/C [8]: 107%
- viability, T/C [9]: 90.8%
- viability, T/C [10]: 93.7%
- viability, T/C [11]: 73%
- viability, T/C [12]: 54.6%
- viability, T/C [13]: 110%
- viability, T/C [14]: 116%
- viability, T/C [15]: 87.9%
- viability, T/C [16]: 104%
- viability, T/C [17]: 82.3%
- viability, T/C [18]: 48.6%
- viability, T/C [19]: 119%
- viability, T/C [20]: 108%
- viability, T/C [21]: 101%
- viability, T/C [22]: 91.4%
- viability, T/C [23]: 75.6%
- viability, T/C [24]: 51.3%
- viability, T/C [25]: 113%
- viability, T/C [26]: 101%
- viability, T/C [27]: 85.8%
- viability, T/C [28]: 95.6%
- viability, T/C [29]: 72.4%
- viability, T/C [30]: 48.2%
- viability, T/C [31]: 106%
- viability, T/C [32]: 91%
- viability, T/C [33]: 94.1%
- viability, T/C [34]: 87.8%
- viability, T/C [35]: 87.1%
- viability, T/C [36]: 50%
- viability, T/C [37]: 110%
- viability, T/C [38]: 113%
- viability, T/C [39]: 107%
- viability, T/C [40]: 82.5%
- viability, T/C [41]: 71.2%
- viability, T/C [42]: 52.5%

SMILES: C=CCn1c(=O)c2cnc(Nc3ccc(N4CCN(C)CC4)cc3)nc2n1-c1cccc(C(C)(C)O)n1
- viability, T/C (compound 0.00316 µM): 96.3% and 101% and 120%
- viability, T/C (compound 0.01 µM): 104% and 117% and 103%
- viability, T/C (compound 0.0316 µM): 94.6% and 104% and 95.5%
- viability, T/C (compound 0.1 µM): 98.4% and 100% and 113%
- viability, T/C (compound 0.316 µM): 99% and 117% and 98.4%
- viability, T/C (compound 1 µM): 60.4% and 62.4% and 59%
- IC50 (curve of compound): > 1000 nM
